The values below come from US8716493B2, “Multicyclic compounds and the use thereof” (Cephalon, Inc., priority 2000, dated 2014).

By IC50 is commonly meant the concentration needed to halve the response being measured.

Sequence of recombinant human PARP (P09874 whole entry): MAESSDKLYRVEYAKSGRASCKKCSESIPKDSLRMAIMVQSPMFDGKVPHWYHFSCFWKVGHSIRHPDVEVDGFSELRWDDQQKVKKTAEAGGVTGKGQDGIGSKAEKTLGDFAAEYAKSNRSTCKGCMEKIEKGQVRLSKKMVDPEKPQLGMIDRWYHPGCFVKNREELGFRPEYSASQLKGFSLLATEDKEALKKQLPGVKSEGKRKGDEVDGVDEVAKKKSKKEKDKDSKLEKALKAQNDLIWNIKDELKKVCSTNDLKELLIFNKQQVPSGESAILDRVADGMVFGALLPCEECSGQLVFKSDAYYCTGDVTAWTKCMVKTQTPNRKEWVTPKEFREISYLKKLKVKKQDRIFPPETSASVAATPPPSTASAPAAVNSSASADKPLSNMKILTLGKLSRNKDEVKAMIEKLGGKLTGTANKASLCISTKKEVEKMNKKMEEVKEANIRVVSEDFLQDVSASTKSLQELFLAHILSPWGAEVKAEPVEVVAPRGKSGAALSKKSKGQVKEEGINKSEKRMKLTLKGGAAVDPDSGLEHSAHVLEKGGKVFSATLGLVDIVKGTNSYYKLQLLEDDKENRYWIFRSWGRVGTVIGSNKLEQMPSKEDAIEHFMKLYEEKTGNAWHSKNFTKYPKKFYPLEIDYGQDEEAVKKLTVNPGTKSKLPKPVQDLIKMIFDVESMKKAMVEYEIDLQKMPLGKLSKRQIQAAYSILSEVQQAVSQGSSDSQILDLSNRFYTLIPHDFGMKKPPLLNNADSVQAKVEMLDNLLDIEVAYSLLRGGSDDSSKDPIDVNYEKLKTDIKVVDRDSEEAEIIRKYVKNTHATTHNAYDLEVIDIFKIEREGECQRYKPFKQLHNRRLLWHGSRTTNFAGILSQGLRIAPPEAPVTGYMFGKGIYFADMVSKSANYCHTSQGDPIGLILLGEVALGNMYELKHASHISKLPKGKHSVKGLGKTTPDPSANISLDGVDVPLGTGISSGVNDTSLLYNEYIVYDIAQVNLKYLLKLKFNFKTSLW
T1 sequence (P35968 786-1356 limits assumed): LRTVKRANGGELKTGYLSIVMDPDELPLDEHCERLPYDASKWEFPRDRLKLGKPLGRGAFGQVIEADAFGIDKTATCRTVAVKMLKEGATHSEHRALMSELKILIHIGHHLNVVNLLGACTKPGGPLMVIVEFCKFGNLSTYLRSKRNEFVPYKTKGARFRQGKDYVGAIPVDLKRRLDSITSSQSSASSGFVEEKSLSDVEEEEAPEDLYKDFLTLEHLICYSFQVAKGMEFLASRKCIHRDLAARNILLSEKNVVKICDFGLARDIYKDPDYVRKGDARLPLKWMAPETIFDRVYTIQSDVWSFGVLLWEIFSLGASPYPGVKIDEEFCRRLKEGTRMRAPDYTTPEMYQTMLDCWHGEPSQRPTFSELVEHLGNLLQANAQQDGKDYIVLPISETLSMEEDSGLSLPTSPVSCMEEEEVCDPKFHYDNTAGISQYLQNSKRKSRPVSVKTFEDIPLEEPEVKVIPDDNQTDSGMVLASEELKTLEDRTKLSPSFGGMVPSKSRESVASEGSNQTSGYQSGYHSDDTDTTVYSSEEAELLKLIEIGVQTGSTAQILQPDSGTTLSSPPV

The first test has as its target T1, human VEGFR2 cytoplasmic domain (Homo sapiens, UniProt P35968).
T1 construct: recombinant human baculovirus-expressed human VEGFR2 cytoplasmic domain; host or cells: baculovirus-expressed
The test is described as follows: Measurement of VEGFR2 kinase enzymatic activity (time-resolved fluorescence, PLC-γ/GST substrate). Format: biochemical. The conditions noted are these: Table 5. As for the experimental part: A 96-well FluoroNUNC MaxiSorp plate was coated with 100 μL/well of recombinant human PLC-γ/GST substrate solution at a concentration of 40 μg/mL in Tris-buffered saline (TBS). The VEGFR2 activity was assayed in a 100 μL assay mixture containing 50 mM HEPES (pH 7.4), 30 μM ATP, 10 mM MnCl2, 0.1% BSA, 2% DMSO, and 150 ng/mL recombinant human baculovirus-expressed human VEGFR2 cytoplasmic domain (prephosphorylated for 60 min at 4° C. in the presence of 30 μM ATP and 10 mM MnCl2 prior to use). The kinase reaction was allowed to proceed at 37° C. for 15 min. The europium-labeled anti-phosphotyrosine detection antibody was added at 1:5000 dilution in block buffer (3% BSA in TBST). After 1 hour of incubation at 37° C., 100 μL of enhancement solution (Wallac #1244-105) was added and the plate was gently agitated. After 5 min, the time-resolved fluorescence of the resulting solution was measured using the BMG PolarStar (Model #403) using excitation and emission wavelengths of 340 nm and 615 nm, respectively, a collection delay of 400 μsec and an integration time of 400 μsec.
(§1) Single-point inhibition data were calculated by comparing PARP, VEGFR2, or MLK3 activity in the presence of inhibitor to activity in the presence of DMSO only. Inhibition curves for compounds were generated by plotting percent inhibition versus log10 of the concentration of compound. IC50 values were calculated by nonlinear regression using the sigmoidal dose-response (variable slope) equation in GraphPad Prism as follows: y=bottom+(top−bottom)/(1+10^(log IC50^−x)*Hillslope) where y is the % activity at a given concentration of compound, x is the logarithm of the concentration of compound, bottom is the % inhibition at the lowest compound concentration tested, and top is the % inhibition at the highest compound concentration examined. The values for bottom and top were fixed at 0 and 100, respectively. IC50 values were reported as the average of at least three separate determinations.
The following Examples 5 to 10 present PARP, VEGFR2, and MLK3 inhibiting data for compounds of the present invention. […] For some compounds, inhibiting data is presented as percent inhibition at a specified concentration. Compounds are tabulated together with compound number, substituents, and enzyme inhibition data.
On to `O=C1NCc2c3c(c4[nH]c5ccccc5c4c21)CCC3` [Compound 11a, 5,7,8,9,10,11-Hexahydrocyclopent[a]pyrrolo[3,4-c]carbazole-5(6H)-one], for which the IC50 turned out to be 477 nM. The same measure, in the same setting: the figure for `O=C1NC(=O)c2c1c1c(c3[nH]c4ccccc4c23)CCCC1` [Compound 11b, 5,7,9,10,11,12-Hexahydrocyclohexano[a]pyrrolo[3,4-c]carbazole-5(6H), 7(8H)-dione] is 698 nM; for `O=C1NC(=O)c2c1c1cnccc1c1[nH]c3ccccc3c21` [Compound 12a] it is 235 nM; for `Cn1c2ccccc2c2c3c(c4c(c21)CCCC4)C(=O)NC3=O` [Compound 11d] it is 778 nM.

Staying with this test, now noted: percent inhibition at 100 nM; Table 5.
For the molecule “9-Ethyl-8-propyl-5,7-dihydropyrrolo[3,4-c]carbazole-5(6H), 7(10H)-dione [Compound 11c]”, the “VEGFR2 % @100 nM” value was 0% @100 nM.

The same test, now with this note: percent inhibition at 300 nM; Table 5.
Consider `O=C1NC(=O)c2c1c1occc1c1[nH]c3ccccc3c21` [Compound 11g, 5,7-Dihydrofuran[a-3,2]pyrrolo[3,4-c]carbazole-5(6H), 7(11H)-dione], for which the “VEGFR2 % @ 300 nM” value came out at 8%.

Another test deals with recombinant human PARP (Homo sapiens, UniProt P09874). As to the kind of experiment: Measurement of PARP enzymatic activity (transfer of radiolabeled ADP-ribose from NAD+ to protein acceptor). The format is biochemical. The conditions noted are these: PARP IC50 (nM), Table 2. A digest of the protocol:
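Radiometric assay measuring transfer of [32P]ADP-ribose from NAD+ (100 μM, 2 uCi/mL label) to histone or PARP automodification, 12 min at room temperature; acid-insoluble radioactivity counted by scintillation.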
As for `O=C1NC(=O)c2c1c1c(c3[nH]c4ccc(-c5csc(CNC(=O)C6CCCC6)n5)cc4c23)CCC1` [Compound 3x], the 50% inhibitory concentration (IC50) came to 52 nM.

Staying with this test, now noted: PARP IC50 (nM), Table 8.
Consider `O=C(NCCc1ccccn1)Oc1ccc2[nH]c3c4c(c5c(c3c2c1)C(=O)NC5=O)CCC4` [Compound 15g], for which the IC50 turned out to be 36 nM. The same measure, in the same setting: for `O=C(NCc1cccnc1)Oc1ccc2[nH]c3c4c(c5c(c3c2c1)C(=O)NC5=O)CCC4` [Compound 15f] the value was 34 nM; for `CN(CCc1ccccn1)C(=O)Oc1ccc2[nH]c3c4c(c5c(c3c2c1)C(=O)NC5=O)CCC4` [Compound 15h], 39 nM.

Staying with this test, now noted: PARP IC50, Table 18.
As to `O=C(NCCn1cncn1)Oc1ccc2[nH]c3c4c(c5c(c3c2c1)C(=O)NC5=O)CCC4` [Compound 15n], the IC50 was 38 nM.

The test is the same for the next values; noted with them: Table 1; read-out: PARP IC50.
Take `O=C1c2c3c(c4[nH]c5ccccc5c4c2C(=O)N1CCCO)CCC3` [Compound 1e]: the 50% inhibitory concentration (IC50) was 946 nM. Same read-out and setting: for `O=C1c2c3c(c4[nH]c5ccccc5c4c2C(=O)N1CCOCc1ccccc1)CCC3` [Compound 1n] the value was 1600 nM; for `CCN(CC)CCCN1C(=O)c2c3c(c4[nH]c5ccccc5c4c2C1=O)CCC3` [Compound 1h], 819 nM.

Still in this test, the particulars now being: Table 2; read-out: PARP IC50.
As for `CCc1ccc2[nH]c3c4c(c5c(c3c2c1)C(=O)NC5=O)CCC4` [Compound 2az], the IC50 worked out at 116 nM.

For the molecule `CC(C)C(=O)NCc1nc(-c2ccc3[nH]c4c5c(c6c(c4c3c2)C(=O)NC6=O)CCC5)cs1` [Compound 3t], the IC50 came to 32 nM. Still for that read-out and setting: the figure for `NCCNC(=O)CCC(=O)c1ccc2[nH]c3c4c(c5c(c3c2c1)C(=O)NC5=O)CCC4` [Compound 4e] is 22 nM; for `CN(CCc1ccccn1)C(=O)c1ccc2[nH]c3c4c(c5c(c3c2c1)C(=O)NC5=O)CCC4` [Compound 2cw] it is 24 nM. On to `O=C(O)CCC(=O)c1ccc2[nH]c3c4c(c5c(c3c2c1)C(=O)NC5=O)CCC4` [Compound 2m], for which the IC50 came out at 3 nM. Same read-out and setting: the figure for `COC(=O)c1ccc2[nH]c3c4c(c5c(c3c2c1)C(=O)NC5=O)CCC4` [Compound 2bi] is 27 nM. The same measure, in the same setting: for `Nc1nc(-c2ccc3[nH]c4c5c(c6c(c4c3c2)C(=O)NC6=O)CCC5)cs1` [Compound 3a] the value was 25 nM; for `NC(=O)[C@@H]1CCCN1C(=O)CCC(=O)c1ccc2[nH]c3c4c(c5c(c3c2c1)C(=O)NC5=O)CCC4` [Compound 4o], 13 nM; for `CCCN(CCC)Cc1ccc2[nH]c3c4c(c5c(c3c2c1)C(=O)NC5=O)CCC4` [Compound 2bl], 16 nM. As for `COC(=O)C(=O)c1ccc2[nH]c3c4c(c5c(c3c2c1)C(=O)NC5=O)CCC4` [Compound 2ba], the IC50 amounted to 12 nM. The same measure, in the same setting: the figure for `NCC(=O)NCc1ccc2[nH]c3c4c(c5c(c3c2c1)C(=O)NC5=O)CCC4` [Compound 2x, 3-(N-(2-(Amino)acetyl)aminomethyl)-5,7,8,9,10,11-hexahydrocyclopent[a]pyrrolo[3,4-c]carbazole-5(6H), 7-dione] is 45 nM. For `Cc1nc(-c2ccc3[nH]c4c5c(c6c(c4c3c2)C(=O)NC6=O)CCC5)cs1` [Compound 3b], the IC50 was 40 nM. The same measure, in the same setting: for `CS(=O)(=O)Cc1nc(-c2ccc3[nH]c4c5c(c6c(c4c3c2)C(=O)NC6=O)CCC5)cs1` [Compound 3z] the value was 38 nM; for `CN(C)CCOC(=O)c1ccc2[nH]c3c4c(c5c(c3c2c1)C(=O)NC5=O)CCC4` [Compound 2cz], 30 nM.

For `CN(CC(=O)O)CC(=O)c1ccc2[nH]c3c4c(c5c(c3c2c1)C(=O)NC5=O)CCC4` [Compound 2l], the IC50 was 8 nM. For `CNCc1ccc2[nH]c3c4c(c5c(c3c2c1)C(=O)NC5=O)CCC4` [Compound 2bt], the IC50 worked out at 25 nM. Still for that read-out and setting: the figure for `CN1N=C(c2ccc3[nH]c4c5c(c6c(c4c3c2)C(=O)NC6=O)CCC5)CCC1=O` [Compound 4m] is 12 nM; for `NCCc1ccc2[nH]c3c4c(c5c(c3c2c1)C(=O)NC5=O)CCC4` [Compound 2be] it is 36 nM. The same measure, in the same setting: the figure for `CC(=O)c1ccc2[nH]c3c4c(c5c(c3c2c1)C(=O)NC5=O)CCC4` [Compound 2d] is 17 nM; for `COc1ccc2[nH]c3c4c(c5c(c3c2c1)C(=O)NC5=O)CCC4` [Compound 2ap] it is 32 nM; for `CC(Br)C(=O)c1ccc2[nH]c3c4c(c5c(c3c2c1)C(=O)NC5=O)CCC4` (stereo not shown) [Compound 2f] it is 21 nM.

As to `O=C1NC(=O)c2c1c1c(c3[nH]c4ccc(F)cc4c23)CCC1` [Compound 2c], the IC50 came out at 39 nM. `CCOCc1ccc2[nH]c3c4c(c5c(c3c2c1)C(=O)NC5=O)CCC4` [Compound 2de]: the IC50 is 43 nM. The same measure, in the same setting: the figure for `CNc1nc(-c2ccc3[nH]c4c5c(c6c(c4c3c2)C(=O)NC6=O)CCC5)cs1` [Compound 3h] is 54 nM.

Staying with this test, now noted: Table 4; read-out: PARP IC50.
Consider `N#Cc1c[nH]c2c3c(c4c(c12)C(=O)NC4=O)CCC3` [Compound 8d, 3-Cyano-1,6,7,8-tetrahydrocyclopent[g]indole-4,5-dicarboxylate imide], for which the half-maximal inhibitory concentration (IC50) is 6 nM. Turning to `O=C1NC(=O)c2c1c1c(c3[nH]c4ncccc4c23)CCC1` [Compound 8h], the IC50 was found to be 3 nM.

The same test, now with this note: Table 7; read-out: PARP IC50.
As to `COc1cccc2[nH]c3c4c(c5c(c3c12)C(=O)NC5=O)CCC4` [Compound 14b], the IC50 stood at 19 nM.

The same test, now with this note: Table 18; read-out: PARP IC50.
Take `CCOc1ccnc2[nH]c3c4c(c5c(c3c12)C(=O)NC5=O)CCC4` [Compound 8y]: the IC50 stood at 5 nM. For the molecule `CCOCCOc1ccnc2[nH]c3c4c(c5c(c3c12)C(=O)NC5=O)CCC4` [Compound 8ab], the IC50 amounted to 11 nM. The same measure, in the same setting: the figure for `CCN(CC)CCOc1cccc2[nH]c3c4c(c5c(c3c12)C(=O)NC5=O)CCC4` [Compound 14e] is 526 nM; for `COc1cccc2[nH]c3c4c(c5c(c3c12)C(=O)N(CN1CCOCC1)C5=O)CCC4` [Compound 16d] it is 11 nM. Still for that read-out and setting: for `CCOCCOc1cccc2[nH]c3c4c(c5c(c3c12)C(=O)NC5=O)CCC4` [Compound 14i] the value was 36 nM; for `O=C1NC(=O)c2c1c1c(c3[nH]c4nc(O)c(Br)cc4c23)CCC1` [Compound 8p], 20 nM.

In the next test the target is T2, MLK3 (Homo sapiens, UniProt Q16584).
T2 construct: 2 μg/mL of baculoviral human GST-MLK1 kinase domain; GST (N); host or cells: baculovirus expression
T2 sequence (Q16584 117-379 limits assumed): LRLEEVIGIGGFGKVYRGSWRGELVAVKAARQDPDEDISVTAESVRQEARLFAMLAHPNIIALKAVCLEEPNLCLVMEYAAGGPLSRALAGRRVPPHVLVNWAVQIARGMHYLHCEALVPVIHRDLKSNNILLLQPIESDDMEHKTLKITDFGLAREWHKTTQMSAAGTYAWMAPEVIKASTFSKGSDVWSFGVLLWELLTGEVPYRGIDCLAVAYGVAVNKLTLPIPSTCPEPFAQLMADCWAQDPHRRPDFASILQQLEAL
As to the kind of experiment: Measurement of MLK3 enzymatic activity (32P phosphorylation of myelin basic protein). The format is biochemical. The conditions noted are these: percent inhibition at 1 μM; Table 5. As for the experimental part: The activity assay for MLK3 was performed in Millipore Multiscreen plates. Each 50 μL assay mixture contained 50 mM HEPES (pH 7.0), 1 mM EGTA, 10 mM MgCl2, 1 mM DTT, 25 mM β-glycerophosphate, 100 μM ATP, 1 μCi [γ-^32P]ATP, 0.1% BSA, 500 μg/mL myelin basic protein, 2% DMSO, various concentrations of test compounds, and 2 μg/mL of baculoviral human GST-MLK1 kinase domain. Samples were incubated for 15 min at 37° C. The reaction was stopped by adding ice-cold 50% TCA and the proteins were allowed to precipitate for 30 min at 4° C.
as §1
For some compounds, inhibiting data is presented as percent inhibition at a specified concentration. Compounds are tabulated together with compound number, substituents, and enzyme inhibition data.
Turning to `O=C1NC(=O)c2c1c1occc1c1[nH]c3ccccc3c21` [Compound 11g, 5,7-Dihydrofuran[a-3,2]pyrrolo[3,4-c]carbazole-5(6H), 7(11H)-dione], the “MLK3 % @ 1 μM” value turned out to be 16%. Regarding `O=C1NC(=O)c2c1c1c(c3[nH]c4ccccc4c23)CCCC1` [Compound 11b, 5,7,9,10,11,12-Hexahydrocyclohexano[a]pyrrolo[3,4-c]carbazole-5(6H), 7(8H)-dione], the “MLK3 % @ 1 μM” value turned out to be 26%. On the same count and under the same terms, for `O=C1NC(=O)c2c1c1cnccc1c1[nH]c3ccccc3c21` [Compound 12a] the value was 74%; for “9-Ethyl-8-propyl-5,7-dihydropyrrolo[3,4-c]carbazole-5(6H), 7(10H)-dione [Compound 11c]”, 46%; for `Cn1c2ccccc2c2c3c(c4c(c21)CCCC4)C(=O)NC3=O` [Compound 11d], 52%.
